# Key:
# [1] = Cytotoxicity against human NCI-H522 cells assessed as growth inhibition after 48 hrs by SRB assay; type: functional; settings: NCI-H522, 48 h
# [2] = Cytotoxicity against human Caki1 cells assessed as growth inhibition after 48 hrs by SRB assay; type: functional; settings: CAKI-1, 48 h
# [3] = Induction of apoptosis in mouse EAC cells at 375 uM after 24 hrs by acridine orange dye-based fluorescence microscopy (reference value: 0.66 +/- 0.33%); type: cell-based; settings: ehrlich
# [4] = Cytotoxicity against human SW620 cells assessed as growth inhibition after 48 hrs by SRB assay; type: functional; settings: SW-620, 48 h
# [5] = Cytotoxicity against human 786-0 cells assessed as growth inhibition after 48 hrs by SRB assay; type: functional; settings: 786-0, 48 h
# [6] = Cytotoxicity against human PC3 cells assessed as growth inhibition after 48 hrs by SRB assay; type: functional; settings: PC-3, 48 h
# [7] = Cytotoxicity against human NCI-H322M cells assessed as assessed as growth inhibition at 10^-5 M after 48 hrs by SRB assay relative to control; type: functional; settings: read-out: GI
# [8] = Cytotoxicity against human HCT116 cells assessed as growth inhibition after 48 hrs by SRB assay; type: functional; settings: HCT-116, 48 h
# [9] = Cytotoxicity against human A549 cells assessed as assessed as growth inhibition at 10^-5 M after 48 hrs by SRB assay relative to control; type: functional; settings: A549, 48 h, read-out: GI
# [10] = Cytotoxicity against human SKOV3 cells assessed as assessed as growth inhibition at 10^-5 M after 48 hrs by SRB assay relative to control; type: functional; settings: SK-OV-3, 48 h, read-out: GI
# [11] = Cytotoxicity against human MDA-MB-435 cells assessed as assessed as growth inhibition at 10^-5 M after 48 hrs by SRB assay relative to control; type: functional; settings: MDA-MB-435, 48 h, read-out: GI
# [12] = Cytotoxicity against human K562 cells assessed as growth inhibition after 48 hrs by SRB assay; type: functional; settings: K562, 48 h
# [13] = Cytotoxicity against human SR cells assessed as growth inhibition after 48 hrs by SRB assay; type: functional
# [14] = Cytotoxicity against human SK-MEL-5 cells assessed as assessed as growth inhibition at 10^-5 M after 48 hrs by SRB assay relative to control; type: functional; settings: SK-MEL-5, 48 h, read-out: GI
# [15] = Cytotoxicity against human MDA-MB-435 cells assessed as growth inhibition after 48 hrs by SRB assay; type: functional; settings: MDA-MB-435, 48 h, read-out: LD50 (the source's name)
# [16] = Cytotoxicity against human COLO205 cells assessed as growth inhibition after 48 hrs by SRB assay; type: functional; settings: COLO 205, 48 h
# [17] = Cytotoxicity against human SF268 cells assessed as assessed as growth inhibition at 10^-5 M after 48 hrs by SRB assay relative to control; type: functional; settings: SF-268, 48 h, read-out: GI
# [18] = Cytotoxicity against human NCI-ADR-RES cells assessed as growth inhibition after 48 hrs by SRB assay; type: functional
# [19] = Cytotoxicity against human HCT15 cells assessed as assessed as growth inhibition at 10^-5 M after 48 hrs by SRB assay relative to control; type: functional; settings: HCT-15, 48 h, read-out: GI
# [20] = Cytotoxicity against human HOP62 cells assessed as growth inhibition after 48 hrs by SRB assay; type: functional; settings: HOP-62, 48 h
# [21] = Cytotoxicity against human MCF7 cells assessed as assessed as growth inhibition at 10^-5 M after 48 hrs by SRB assay relative to control; type: functional; settings: MCF7, 48 h, read-out: GI
# [22] = Cytotoxicity against human ACHN cells assessed as assessed as growth inhibition at 10^-5 M after 48 hrs by SRB assay relative to control; type: functional; settings: read-out: GI
# [23] = Cytotoxicity against human SN12C cells assessed as growth inhibition after 48 hrs by SRB assay; type: functional
# [24] = Cytotoxicity against human UACC62 cells assessed as growth inhibition after 48 hrs by SRB assay; type: functional; settings: UACC-62, 48 h
# [25] = Cytotoxicity against human NCI-H522 cells assessed as assessed as growth inhibition at 10^-5 M after 48 hrs by SRB assay relative to control; type: functional; settings: NCI-H522, 48 h, read-out: GI
# [26] = Cytotoxicity against human KM12 cells assessed as growth inhibition after 48 hrs by SRB assay; type: functional; settings: KM12, 48 h
# [27] = Cytotoxicity against human MDA-MB-468 cells assessed as assessed as growth inhibition at 10^-5 M after 48 hrs by SRB assay relative to control; type: functional; settings: MDA-MB-468, 48 h, read-out: GI
# [28] = Cytotoxicity against human PC3 cells assessed as assessed as growth inhibition at 10^-5 M after 48 hrs by SRB assay relative to control; type: functional; settings: PC-3, 48 h, read-out: GI
# [29] = Cytotoxicity against human SF295 cells assessed as assessed as growth inhibition at 10^-5 M after 48 hrs by SRB assay relative to control; type: functional; settings: SF-295, 48 h, read-out: GI
# [30] = Cytotoxicity against human T47D cells assessed as assessed as growth inhibition at 10^-5 M after 48 hrs by SRB assay relative to control; type: functional; settings: read-out: GI
# [31] = Cytotoxicity against human TK10 cells assessed as assessed as growth inhibition at 10^-5 M after 48 hrs by SRB assay relative to control; type: functional; settings: TK-10, 48 h, read-out: GI
# [32] = Cytotoxicity against human M14 cells assessed as assessed as growth inhibition at 10^-5 M after 48 hrs by SRB assay relative to control; type: functional; settings: M14, 48 h, read-out: GI
# [33] = Cytotoxicity against human IGROV1 cells assessed as assessed as growth inhibition at 10^-5 M after 48 hrs by SRB assay relative to control; type: functional; settings: IGROV-1, 48 h, read-out: GI
# [34] = Cytotoxicity against human M14 cells assessed as growth inhibition after 48 hrs by SRB assay; type: functional; settings: M14, 48 h
# [35] = read-out: LD50 (the source's name)
smiles,measurement,setting,value
O=C1Cc2cc(CCN3CCNCC3)c(Cl)cc2N1,GI50,[1],4.88 µM
same,TGI,[1],> 1 µM
same,CC50,[1]; [35],> 1 µM
same,GI50,[2],6.11 µM
same,TGI,[2],> 1 µM
same,CC50,[2]; [35],> 1 µM
same,Activity,[3],1.33%
same,GI50,[4],4.97 µM
same,TGI,[4],> 1 µM
same,CC50,[4]; [35],> 1 µM
same,GI50,[5],1 µM
same,TGI,[5],> 1 µM
same,CC50,[5]; [35],> 1 µM
same,GI50,[6],9.83 µM
same,TGI,[6],> 1 µM
same,CC50,[6]; [35],> 1 µM
same,inhibition of growth at 10 µM,[7],19.3%
same,GI50,[8],1 µM
same,TGI,[8],> 1 µM
same,CC50,[8]; [35],> 1 µM
same,inhibition of growth at 10 µM,[9],51.1%
same,inhibition of growth at 10 µM,[10],33.2%
same,inhibition of growth at 10 µM,[11],82%
same,GI50,[12],6.24 µM
same,TGI,[12],> 1 µM
same,CC50,[12]; [35],> 1 µM
same,GI50,[13],6.2 µM
same,TGI,[13],> 1 µM
same,CC50,[13]; [35],> 1 µM
same,inhibition of growth at 10 µM,[14],65.4%
same,CC50,[15],> 1 µM
same,GI50,[16],1.97 µM
same,TGI,[16],> 1 µM
same,CC50,[16]; [35],> 1 µM
same,inhibition of growth at 10 µM,[17],27.9%
same,GI50,[18],5.11 µM
same,TGI,[18],> 1 µM
same,CC50,[18]; [35],> 1 µM
same,inhibition of growth at 10 µM,[19],51.2%
same,GI50,[20],1.93 µM
same,TGI,[20],> 1 µM
same,CC50,[20]; [35],> 1 µM
same,inhibition of growth at 10 µM,[21],74.9%
same,inhibition of growth at 10 µM,[22],35.5%
same,GI50,[23],6 µM
same,TGI,[23],> 1 µM
same,CC50,[23]; [35],> 1 µM
same,GI50,[24],6.54 µM
same,TGI,[24],> 1 µM
same,CC50,[24]; [35],> 1 µM
same,inhibition of growth at 10 µM,[25],73.6%
same,GI50,[26],3.96 µM
same,TGI,[26],> 1 µM
same,CC50,[26]; [35],> 1 µM
same,inhibition of growth at 10 µM,[27],89%
same,inhibition of growth at 10 µM,[28],16.5%
same,inhibition of growth at 10 µM,[29],46.4%
same,inhibition of growth at 10 µM,[30],17.3%
same,inhibition of growth at 10 µM,[31],10.9%
same,inhibition of growth at 10 µM,[32],75.5%
same,inhibition of growth at 10 µM,[33],11%
same,GI50,[34],3.02 µM
same,TGI,[34],2.65 µM
same,CC50,[34]; [35],> 1 µM

# Source: ChEMBL document CHEMBL3856212, “Synthesis, anti-proliferative and genotoxicity studies of 6-chloro-5-(2-substituted-ethyl)-1,3-dihydro-2H-indol-2-ones and 6-chloro-5-(2-chloroethyl)-3-(alkyl/ary-2-ylidene)indolin-2-ones” (Eur J Med Chem, 2016)
